Source: patent US11000033B2, “Ketone or oxime compound, and herbicide” (NISSAN CHEMICAL CORPORATION, priority 2014, dated 2021)

Assays:
Format in all cases: in vivo
Avena fatua = assay: Test Example 5: herbicidal effect by foliage application, plastic box (symbol I); conditions: 320 g/ha, 3 weeks after application
Summary of the method: (§1)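 Post-emergence spray; diluvial soil (sterilized), ~1.5 cm seed cover; greenhouse 25–30° C; 14-day-old plants; water-diluted emulsion at predetermined dose; visual score at 3 wk post-treatment.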

Amaranthus retroflexus = assay: Test Example 4: herbicidal effect by soil treatment (symbol N); conditions: for N: Amaranthus retroflexus, herbicidal effect grade: 320 g/ha
Summary of the method: (§2)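 Seeds were sown in sterilized diluvial soil, covered with about 1.5 cm of soil, and the soil surface was sprayed with a water-diluted emulsion of the compound at a predetermined rate. Plants grew in a greenhouse at 25° C. to 30° C.; effects were scored visually 3 weeks after application.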

beet = assay: Test Example 5: effect on crop by foliage application, plastic box (symbol f); conditions: 320 g/ha, 3 weeks after application
Summary of the method: (§3)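 Plants were raised from seed in a greenhouse (25° C. to 30° C.) after sowing in a plastic box of sterilized diluvial soil.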

Setaria viridis [1] = assay: Test Example 4: herbicidal effect by soil treatment (symbol G); conditions: for G: Setaria viridis, herbicidal effect grade: 320 g/ha
Summary of the method: as §2

[2] = test system: Echinochloa oryzacola Vasing.; assay: Test Example 2: herbicidal activity, application during weed generation in submerged conditions (symbol A); conditions: Table 23; application herbicide amount 320 g/ha; grade 0-5 by criteria of Test Example 1
Summary of the method: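 Treatment timing was the one- to two-leaf stage, with diluted emulsifiable compound dropped onto the paddy water (depth 4 cm) over alluvial soil. All three species grew from a mixed sowing in a 25° C. to 30° C. greenhouse. Injury was judged by eye 3 weeks on.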

rice plant = assay: Test Example 5: effect on crop by foliage application, plastic box (symbol b); conditions: 320 g/ha, 3 weeks after application
Summary of the method: as §3

Chenopodium album [3] = assay: Test Example 5: herbicidal effect by foliage application, plastic box (symbol O); conditions: 320 g/ha, 3 weeks after application
Summary of the method: as §1

Galium spurium = assay: Test Example 4: herbicidal effect by soil treatment (symbol Q); conditions: application herbicide amount 320 g/ha
Summary of the method: as §2

Monochoria vaginalis = assay: Test Example 1: herbicidal activity, application before weed generation in submerged conditions (symbol C); conditions: application herbicide amount 320 g/ha
Summary of the method: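 Mixed weed seeds sown in alluvial soil under 4 cm of water, with rice seedlings at the 2.5-leaf stage added. Same-day treatment: emulsion diluted to a set herbicide amount onto the water. Three weeks at 25–30 °C, then graded on a six-step scale.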

Setaria viridis [4] = assay: Test Example 5: herbicidal effect by foliage application, plastic box (symbol G); conditions: 320 g/ha, 3 weeks after application
Summary of the method: as §1

Apera spica-venti = assay: Test Example 4: herbicidal effect by soil treatment (symbol L); conditions: for L: Apera spica-venti, herbicidal effect grade: 320 g/ha
Summary of the method: as §2

Veronica persica = assay: Test Example 4: herbicidal effect by soil treatment (symbol R); conditions: for R: Veronica persica, herbicidal effect grade: 320 g/ha
Summary of the method: as §2

Chenopodium album [5] = assay: Test Example 4: herbicidal effect by soil treatment (symbol O); conditions: for O: Chenopodium album, herbicidal effect grade: 320 g/ha
Summary of the method: as §2

Stellaria media = assay: Test Example 4: herbicidal effect by soil treatment (symbol P); conditions: for P: Stellaria media, herbicidal effect grade: 320 g/ha
Summary of the method: as §2

[6] = application herbicide amount 320 g/ha

| Compound | I: Avena fatua, herbicidal effect grade (Avena fatua) | N (Amaranthus retroflexus) herbicidal effect grade (Amaranthus retroflexus; [6]) | f: beet, effect on crop grade (beet) | G (Setaria viridis) herbicidal effect grade (Setaria viridis [1]; [6]) | Herbicidal effect grade, A: Echinochloa oryzacola Vasing. [2] | b: directly sowed rice plant, effect on crop grade (rice plant) | O: Chenopodium album, herbicidal effect grade (Chenopodium album [3]) | Q (Galium spurium) herbicidal effect grade (Galium spurium) | Herbicidal effect grade, C: Monochoria vaginalis (Monochoria vaginalis) | G: Setaria viridis, herbicidal effect grade (Setaria viridis [4]) | L (Apera spica-venti) herbicidal effect grade (Apera spica-venti; [6]) | I: Avena fatua, herbicidal effect (criteria 0-5) (Avena fatua) | R: Veronica persica, herbicidal effect grade (Veronica persica) | N: Amaranthus retroflexus, herbicidal effect grade (Amaranthus retroflexus) | f: beet, effect on crop (criteria 0-5) (beet) | G: Setaria viridis, herbicidal effect grade (Setaria viridis [1]) | O: Chenopodium album, herbicidal effect grade (Chenopodium album [5]) | b: directly sowed rice plant, effect on crop (criteria 0-5) (rice plant) | P: Stellaria media, herbicidal effect grade (Stellaria media) | O: Chenopodium album, herbicidal effect (criteria 0-5) (Chenopodium album [3]) | also measured |
| --- | --- | --- | --- | --- | --- | --- | --- | --- | --- | --- | --- | --- | --- | --- | --- | --- | --- | --- | --- | --- | --- |
| CC(CC1CC(O)=C(c2c(C)cc(C)cc2C)C1=O)=NOCC1CC1 (centres unmarked) [1-024] | 5 (Herbicidal ratio of 90% or more (almost completely withered)) | 4 (Herbicidal ratio of 70% or higher and lower than 90%) | 0 (Herbicidal ratio of 5% or lower (almost no effect)) | 3 (Herbicidal ratio of 40% or higher and lower than 70%) | 5 (Herbicidal ratio of 90% or more (almost completely withered)) | 5 (Herbicidal ratio of 90% or more (almost completely withered)) | 1 (Herbicidal ratio of 5% or higher and lower than 20%) | 0 (Herbicidal ratio of 5% or lower (almost no effect)) | 2 (Herbicidal ratio of 20% or higher and lower than 40%) | 5 (Herbicidal ratio of 90% or more (almost completely withered)) | 5 (Herbicidal ratio of 90% or more (almost completely withered)) |  |  |  |  |  |  |  |  |  |  |
| CC(CC1CC(O)=C(c2c(C)cc(C)cc2C)C1=O)=NOCc1ccccc1F (centres unmarked) [1-026] | 1 (Herbicidal ratio of 5% or higher and lower than 20%) | 0 (Herbicidal ratio of 5% or lower (almost no effect)) |  | 5 (Herbicidal ratio of 90% or more (almost completely withered)) | 5 (Herbicidal ratio of 90% or more (almost completely withered)) | 5 (Herbicidal ratio of 90% or more (almost completely withered)) | 3 (Herbicidal ratio of 40% or higher and lower than 70%) | 0 (Herbicidal ratio of 5% or lower (almost no effect)) | 5 (Herbicidal ratio of 90% or more (almost completely withered)) | 5 (Herbicidal ratio of 90% or more (almost completely withered)) | 5 (Herbicidal ratio of 90% or more (almost completely withered)) |  |  |  |  |  |  |  |  |  |  |
| CON=C(C)CC1CC(OC(=O)CCC2CCCCC2)=C(c2c(C)cc(C)cc2C)C1=O (centres unmarked) [1-035] | 5 (Herbicidal ratio of 90% or more (almost completely withered)) | 5 (Herbicidal ratio of 90% or more (almost completely withered)) | 2 (Herbicidal ratio of 20% or higher and lower than 40%) | 5 (Herbicidal ratio of 90% or more (almost completely withered)) | 5 (Herbicidal ratio of 90% or more (almost completely withered)) | 5 (Herbicidal ratio of 90% or more (almost completely withered)) |  | 0 (Herbicidal ratio of 5% or lower (almost no effect)) | 2 (Herbicidal ratio of 20% or higher and lower than 40%) | 5 (Herbicidal ratio of 90% or more (almost completely withered)) | 5 (Herbicidal ratio of 90% or more (almost completely withered)) |  |  |  |  |  |  |  |  |  |  |
| CON=C(C)CC1CC(OC(=O)C2=C(Br)CCC2)=C(c2c(C)cc(C)cc2C)C1=O (centres unmarked) [1-089] |  |  |  |  | 5 (Herbicidal ratio of 90% or more (almost completely withered)) |  |  |  | 3 (Herbicidal ratio of 40% or higher and lower than 70%) |  |  | 5 (Herbicidal ratio of 90% or more (almost completely withered)) | 0 (Herbicidal ratio of 5% or lower (almost no effect)) | 3 (Herbicidal ratio of 40% or higher and lower than 70%) | 0 (Herbicidal ratio of 5% or lower (almost no effect)) | 5 (Herbicidal ratio of 90% or more (almost completely withered)) | 0 (Herbicidal ratio of 5% or lower (almost no effect)) | 5 (Herbicidal ratio of 90% or more (almost completely withered)) | 0 (Herbicidal ratio of 5% or lower (almost no effect)) | 1 (Herbicidal ratio of 5% or higher and lower than 20%) | G: Setaria viridis, herbicidal effect (criteria 0-5) (Setaria viridis [4]): 5 (Herbicidal ratio of 90% or more (almost completely withered)); L: Apera spica-venti, herbicidal effect grade (Apera spica-venti): 5 (Herbicidal ratio of 90% or more (almost completely withered)) |
| CCCC=CC(=O)OC1=C(c2c(C)cc(C)cc2C)C(=O)C(CC(C)=NOC)C1 (centres unmarked) [1-090] |  |  |  |  | 5 (Herbicidal ratio of 90% or more (almost completely withered)) |  |  |  | 1 (Herbicidal ratio of 5% or higher and lower than 20%) |  |  | 5 (Herbicidal ratio of 90% or more (almost completely withered)) | 0 (Herbicidal ratio of 5% or lower (almost no effect)) | 0 (Herbicidal ratio of 5% or lower (almost no effect)) | 0 (Herbicidal ratio of 5% or lower (almost no effect)) | 5 (Herbicidal ratio of 90% or more (almost completely withered)) | 0 (Herbicidal ratio of 5% or lower (almost no effect)) | 5 (Herbicidal ratio of 90% or more (almost completely withered)) | 0 (Herbicidal ratio of 5% or lower (almost no effect)) | 2 (Herbicidal ratio of 20% or higher and lower than 40%) | G: Setaria viridis, herbicidal effect (criteria 0-5) (Setaria viridis [4]): 5 (Herbicidal ratio of 90% or more (almost completely withered)); L: Apera spica-venti, herbicidal effect grade (Apera spica-venti): 5 (Herbicidal ratio of 90% or more (almost completely withered)) |
| CON=C(C)CC1CC(OC(=O)COCc2ccccc2)=C(c2c(C)cc(C)cc2C)C1=O (centres unmarked) [1-094] |  |  |  |  | 5 (Herbicidal ratio of 90% or more (almost completely withered)) |  |  |  | 1 (Herbicidal ratio of 5% or higher and lower than 20%) |  |  | 5 (Herbicidal ratio of 90% or more (almost completely withered)) | 0 (Herbicidal ratio of 5% or lower (almost no effect)) | 4 (Herbicidal ratio of 70% or higher and lower than 90%) | 0 (Herbicidal ratio of 5% or lower (almost no effect)) | 5 (Herbicidal ratio of 90% or more (almost completely withered)) | 0 (Herbicidal ratio of 5% or lower (almost no effect)) | 5 (Herbicidal ratio of 90% or more (almost completely withered)) | 0 (Herbicidal ratio of 5% or lower (almost no effect)) | 0 (Herbicidal ratio of 5% or lower (almost no effect)) | G: Setaria viridis, herbicidal effect (criteria 0-5) (Setaria viridis [4]): 5 (Herbicidal ratio of 90% or more (almost completely withered)); L: Apera spica-venti, herbicidal effect grade (Apera spica-venti): 5 (Herbicidal ratio of 90% or more (almost completely withered)) |
| CON=C(CC1CC(O)=C(c2c(C)cc(Br)cc2C)C1=O)C1CC1 (centres unmarked) [9-002] | 5 (Herbicidal ratio of 90% or more (almost completely withered)) |  | 0 (Herbicidal ratio of 5% or lower (almost no effect)) |  | 5 (Herbicidal ratio of 90% or more (almost completely withered)) | 5 (Herbicidal ratio of 90% or more (almost completely withered)) | 0 (Herbicidal ratio of 5% or lower (almost no effect)) |  | 0 (Herbicidal ratio of 5% or lower (almost no effect)) | 5 (Herbicidal ratio of 90% or more (almost completely withered)) |  |  |  |  |  |  |  |  |  |  | Herbicidal effect grade, R: Veronica persica (Veronica persica; [6]): 0 (Herbicidal ratio of 5% or lower (almost no effect)); Herbicidal effect grade, N: Amaranthus retroflexus (Amaranthus retroflexus; [6]): 0 (Herbicidal ratio of 5% or lower (almost no effect)); Herbicidal effect grade, G: Setaria viridis (Setaria viridis [1]; [6]): 5 (Herbicidal ratio of 90% or more (almost completely withered)); Herbicidal effect grade, O: Chenopodium album (Chenopodium album [5]; [6]): 0 (Herbicidal ratio of 5% or lower (almost no effect)); Herbicidal effect grade, P: Stellaria media (Stellaria media; [6]): 0 (Herbicidal ratio of 5% or lower (almost no effect)); Herbicidal effect grade, L: Apera spica-venti (Apera spica-venti; [6]): 5 (Herbicidal ratio of 90% or more (almost completely withered)) |
